Molecules are shown by their SMILES.

The values that follow come from patent EP0326331B1, “Substituted quinolines and cinnolines” (Dow AgroSciences LLC, priority 1988, dated 1989).

What all share (type): in vivo
For data set [1], the system named is Pseudoperonospora cubensis (downy mildew). Description: Test 1 greenhouse foliar spray screen, downy mildew on squash. The note with it: Pseudoperonospora cubensis, foliar, Test 1, foliar spray on squash; disease control rating at 400 ppm / 100 ppm; read-out: DOWN MDEW.
The subject of data set [2] is Botrytis cinerea (gray mold). Kind of data set: Test 1 greenhouse foliar spray screen, gray mold on grape berries. The note with it: Botrytis cinerea, foliar; Test 1, spray on grape berries; disease control rating at 400 ppm / 100 ppm.
Data set [3] deals with Puccinia recondita tritici (leaf rust). Kind of data set: Test 1 greenhouse foliar spray screen, leaf rust on wheat. The following applies: Puccinia recondita, foliar, Test 1, foliar spray on wheat; disease control rating at 400 ppm / 100 ppm.
In another data set the test system is corn rootworm. Kind of data set: Mite/insect screen, CRW. The note with it: percent mortality, read-out: CRW RESULTS %; for mortality at 12 ppm: CRW rate 12.00 ppm; for mortality at 24 ppm: CRW rate 24.00 ppm. In outline: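 Each compound, taken up in an emulsifier-containing acetone/alcohol mixture and diluted in water to the stated concentrations, was assessed for percent kill following standard exposure times.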

For data set [4], the system named is Venturia inaequalis (apple scab). Kind of data set: Test 1 greenhouse foliar spray screen, apple scab on apple seedling. The note with it: Venturia inaequalis; Test 1, foliar spray on apple seedling; disease control rating at 400 ppm / 100 ppm; read-out: APPL SCAB.
Data set [5] has as its system Erysiphe graminis tritici (powdery mildew). Description: Test 1 greenhouse foliar spray screen, powdery mildew on wheat. The note with it: Blumeria graminis, foliar, Test 1, foliar spray on wheat; disease control rating at 400 ppm / 100 ppm; read-out: POWD MDEW.
Data set [6] concerns Pyricularia oryzae (rice blast). Description: whole plant or invertebrate. The note with it: Pyricularia oryzae, foliar, read-out: RICE BLAST, Test 1, foliar spray on rice; disease control rating at 400 ppm / 100 ppm.
Data set [7] relates to melon aphids (Aphis gossypii Glover). Kind of data set: Mite/insect screen, MA. The following applies: Aphis gossypii, foliar, percent mortality, foliar spray on squash, read-out: MA RESULTS %; for mortality at 200 ppm: rate 200 ppm; for mortality at 400 ppm: rate 400 ppm. Summed up:
(§1)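 Activity is expressed as percent mortality at the indicated spray concentrations. Plants are sprayed to runoff on upper and lower leaf surfaces with aqueous dilutions of an acetone/alcohol emulsifiable formulation, then dried for one hour.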

Data set [8] concerns Septoria tritici (leaf blotch). Kind of data set: Test 1 greenhouse foliar spray screen, leaf blotch on wheat. The note with it: Zymoseptoria tritici; Test 1, foliar spray on wheat; disease control rating at 400 ppm / 100 ppm; read-out: LEAF BLOT.
Data set [9] deals with southern armyworm (Spodopetra eridania Cramer). Description: Mite/insect screen, SAW. The note with it: percent mortality, foliar spray on squash; for mortality at 200 ppm / mortality at 400 ppm: Spodoptera eridania, foliar, read-out: SAW RESULTS %; for mortality at 200 ppm: rate 200 ppm. Summed up:
as §1

The subject of data set [10] is Cercospora beticola (leaf spot). Description: Test 1 greenhouse foliar spray screen, leaf spot on sugar beet. The following applies: Cercospora beticola; Test 1, foliar spray on sugar beet; disease control rating at 400 ppm / 100 ppm.
The subject of data set [11] is Twospotted spider mites (Tetranychus urticae Koch). Description: Mite/insect screen, SM. The following applies: for mortality at 200 ppm / mortality at 400 ppm: Tetranychus urticae, foliar, read-out: SM RESULTS %; for mortality at 200 ppm: rate 200 ppm; for activity as miticides: summary statement in the description. Summed up:
as §1

[12] abbreviates: percent mortality, foliar spray on squash.
Setting [13] is: percent mortality, rate 400 ppm, foliar spray on squash.

`Fc1ccc(CCOc2ccnc3c(F)cccc23)cc1` [Example 222, 8-fluoro-4-[2-(4-fluorophenyl)ethoxy]quinoline]: the pest or weed control at 400 ppm in [1] was in the range of 90 to 100%; in data set [2], 0 to 19%; in data set [3], 90 to 100%; in data set [4], 90 to 100%; in data set [5], 20 to 89%; in data set [6], 20 to 89%. Besides, the pest or weed control at 400 ppm lay in the range of 90 to 100% in data set [8] and 20 to 89% in data set [10]. Besides, the mortality at 12 ppm in the data set on corn rootworm came to 0%. Moreover, the mortality at 24 ppm with corn rootworm was 0%. The mortality at 200 ppm in data set [7] turned out to be 50%; in data set [9], 0%; in data set [11] (setting [12]) it was 0%. Moreover, the results for the mortality at 400 ppm in [7], in [9] (rate 400 ppm) and in [11] (setting [13]) were 40%, 0% and 0%, respectively.
With `COc1ccccc1CCOc1ccnc2ccccc12` [Example 229, 4-[2-(2-methoxyphenyl)ethoxy]quinoline], the pest or weed control at 400 ppm in data set [1] was 90 to 100%; in data set [2] it was 0 to 19%; in [3], 90 to 100%; in [4] it was 0 to 19%; in data set [5], 20 to 89%; in data set [6] it was 90 to 100%. For the same compound, the pest or weed control at 400 ppm in data set [8] was in the range of 20 to 89%; in [10] it was 0 to 19%. Besides, the mortality at 12 ppm in the data set on corn rootworm stood at 0%. For the same compound, in the data set with corn rootworm, the mortality at 24 ppm was 0%. The results for the mortality at 200 ppm in data set [7], in [9] and in data set [11] (setting [12]) were 50%, 0% and 50%, respectively. Also, the mortality at 400 ppm in data set [7], in data set [9] (rate 400 ppm) and in data set [11] (setting [13]) was 0% throughout.
With `Clc1ccc2c(OCCc3ccc(-c4ccccc4)cc3)ccnc2c1` [Example 230, 7-chloro-4-[2-(1,1'-biphenyl)-4-yl-ethoxy]quinoline], the pest or weed control at 400 ppm is 0 to 19% in data set [1]; 0 to 19% in data set [2]; 20 to 89% in data set [3]; 0 to 19% in data set [4]; 90 to 100% in data set [5]; 0 to 19% in data set [6]. Also, the pest or weed control at 400 ppm in data set [8] and in [10] was 0 to 19% throughout. Besides, in the data set with corn rootworm, the mortality at 12 ppm was 0%. Also, in the data set on corn rootworm, the mortality at 24 ppm is 0%. Also, the figures for the mortality at 200 ppm in data set [7], in data set [9] and in data set [11] (setting [12]) were 90%, 0% and 100%, respectively. The mortality at 400 ppm came out at 0% in [7], 0% in data set [9] (rate 400 ppm) and 80% in data set [11] (setting [13]). Also, in data set [11], the activity as miticides entry is on record as “particularly excellent activity”.
With `Fc1ccc2c(OCCc3ccc(-c4ccccc4)cc3)ccnc2c1` [Example 233, 4-[2-(1,1'-biphenyl)-4-ylethoxy]-7-fluoroquinoline], the pest or weed control at 400 ppm in [1] fell in the range of 20 to 89%; in data set [2], 0 to 19%; in data set [3], 90 to 100%; in [4] it was 0 to 19%; in data set [5], 20 to 89%; in data set [6], 90 to 100%. Further, the results for the pest or weed control at 400 ppm in data set [8] and in data set [10] were 20 to 89% and 0 to 19%, respectively. Further, the mortality at 12 ppm in the data set with corn rootworm worked out at 0%. Moreover, the mortality at 24 ppm in the data set on corn rootworm was determined as 0%. For the same compound, the mortality at 200 ppm was found to be 50% in [7], 0% in data set [9] and 100% in data set [11] (setting [12]). Besides, the values for the mortality at 400 ppm in data set [7], in data set [9] (rate 400 ppm) and in data set [11] (setting [13]) were 80%, 0% and 80%, respectively. Further, in data set [11], the activity as miticides entry is listed as “particularly excellent activity”.
Consider `Fc1ccc2c(OCCc3ccc(Cl)cc3)ccnc2c1` [Example 234, 4-[2-(4-chlorophenyl)ethoxy]-7-fluoroquinoline], for which the pest or weed control at 400 ppm in [1] lay in the range of 20 to 89%; in data set [2], 0 to 19%; in data set [3], 90 to 100%; in data set [4], 0 to 19%; in data set [5] it was 20 to 89%; in data set [6] it was 20 to 89%. In addition, the pest or weed control at 400 ppm in data set [8] and in [10] was 20 to 89% each time. Also, in the data set with corn rootworm, the mortality at 12 ppm stood at 0%. For the same compound, in the data set on corn rootworm, the mortality at 24 ppm is 0%. The figures for the mortality at 200 ppm in data set [7], in [9] and in [11] (setting [12]) were 50%, 60% and 50%, respectively. Also, the values for the mortality at 400 ppm in data set [7], in data set [9] (rate 400 ppm) and in data set [11] (setting [13]) were 100%, 0% and 30%, respectively.
For the compound `Cc1ccc(CCOc2ccnc3cc(F)ccc23)cc1` [Example 235, 7-fluoro-4-[2-(4-methylphenyl)ethoxy]quinoline], the pest or weed control at 400 ppm in [1] fell in the range of 20 to 89%; in data set [2] it was 0 to 19%; in data set [3], 90 to 100%; in data set [4], 0 to 19%; in [5] it was 20 to 89%; in [6] it was 90 to 100%. The pest or weed control at 400 ppm in data set [8] lay in the range of 20 to 89%; in data set [10], 0 to 19%. Besides, in the data set on corn rootworm, the mortality at 12 ppm was determined as 0%. In the data set with corn rootworm, the mortality at 24 ppm turned out to be 0%. Also, the mortality at 200 ppm in [7] came to 0%; in [9] it was 80%; in data set [11] (setting [12]), 0%. In addition, the figures for the mortality at 400 ppm in data set [7], in data set [9] (rate 400 ppm) and in data set [11] (setting [13]) were 50%, 0% and 0%, respectively.
Take `Fc1ccc(CCOc2ccnc3cc(Cl)ccc23)cc1` [Example 236, 7-chloro-4-[2-(4-fluorophenyl)ethoxy]quinoline]: the pest or weed control at 400 ppm in data set [1] fell in the range of 0 to 19%; in [2] it was 0 to 19%; in data set [3] it was 20 to 89%; in data set [4], 0 to 19%; in [5] it was 90 to 100%; in data set [6], 0 to 19%. Moreover, the pest or weed control at 400 ppm in data set [8] and in data set [10] was 0 to 19% throughout. The mortality at 12 ppm with corn rootworm was 0%. The mortality at 200 ppm in data set [7], in data set [9] and in data set [11] (setting [12]) was 0% in each case. The mortality at 400 ppm in data set [9] (rate 400 ppm) and in data set [11] (setting [13]) was 0% throughout. In addition, the “SAW RESULTS %” value in [9] (rate 400 ppm) is on record as 0%. Also, the “SM RESULTS %” value in data set [11] (setting [13]) was found to be 0%.
Turning to `Fc1cccc2c(OCCc3cccc4ccccc34)ccnc12` [Example 244, 8-fluoro-4-[2-(1-naphthyl)ethoxy]quinoline], the pest or weed control at 400 ppm fell in the range of 20 to 89% in data set [1]; 0 to 19% in data set [2]; 20 to 89% in data set [3]; 0 to 19% in data set [4]; 20 to 89% in data set [5]; 90 to 100% in [6]. Further, the results for the pest or weed control at 400 ppm in [8] and in data set [10] were 20 to 89% and 0 to 19%, respectively. Moreover, in the data set on corn rootworm, the mortality at 12 ppm turned out to be 0%. The mortality at 200 ppm worked out at 40% in [7], 0% in [9] and 0% in [11] (setting [12]).
Take `c1csc(CCOc2ccnc3ccccc23)c1` [Example 245, 4-[2-(2-thienyl)ethoxy]quinoline]: the pest or weed control at 400 ppm in [1] fell in the range of 90 to 100%; in data set [2], 0 to 19%; in data set [3] it was 90 to 100%; in data set [4], 0 to 19%; in [5], 20 to 89%; in data set [6], 90 to 100%. For the same compound, the pest or weed control at 400 ppm in data set [8] and in data set [10] was 0 to 19% throughout. Also, the mortality at 12 ppm in the data set with corn rootworm was determined as 0%. Further, the mortality at 200 ppm in data set [7], in data set [9] and in data set [11] (setting [12]) was 0% in each case.
